The record followed here is patent publication US12122785B2, “Substituted pyridines, pyridazines, pyrimidines, and 1,2,4-triazines as TYK2 inhibitors” (Sudo Biosciences Limited, priority 2021, dated 2024).

Assay [1] addresses T1, JAK1 kinase domain (JH1) (Homo sapiens, UniProt P23458).
T1 construct: recombinant purified His or GST-tagged catalytic domain for each enzyme; made in house
Put plainly: HTRF-based selectivity assay, JAK1 catalytic domain. In kind it is biochemical. The settings on record: 21.43 μM ATP, read-out: JAK-JHI (IC50). Put shortly: (§1)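 Recombinant His- or GST-tagged JAK catalytic domains (JAK1 80.6, JAK2 2.1, JAK3 171.8 ng/mL) preincubated with compound 5-20 min at RT, then ATP (JAK1 21.43, JAK2 14.7, JAK3 2.12 μM) plus peptide substrate (454.7, 200, 257.4 nM respectively) added. HEPES buffer with MgCl2, 60 min at 26.5 °C; HTRF read-out.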
Background: TR-FRET usually uses a lanthanide donor and a delayed reading to cut background.

Assay [2] relates to TYK2 pseudokinase (JH2); IFNα-stimulated HEK-Blue IFNα/β cells. Kind of assay: HEK-Blue IFNα/β reporter assay (STAT1-inducible SEAP) for profiling TYK2 pseudokinase (JH2) inhibition. In kind it is cell-based. The settings on record: 1 ng/mL human recombinant IFNα, SEAP readout, read-out: IFNα (TYK2 inhibitory activity, IC50). Put shortly:
(§2)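 SEAP read-out (QUANTI-Blue) after cytokine stimulation: IL-23 line given 10 ng/mL human IL-23 for 22-24 h; IFNα/β line given 1 ng/mL human IFNα for 16-18 h. Serially diluted compounds added 60 min before cytokine, to cells plated 20-22 h beforehand.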
For orientation: Reporter assays use an easily measured gene product as a stand-in for the process of interest.

For assay [3], the system named is TYK2 pseudokinase (JH2); IL-23-stimulated HEK-Blue IL-23 cells. Kind of assay: HEK-Blue IL-23 reporter assay (STAT3-inducible SEAP) for profiling TYK2 pseudokinase (JH2) inhibition. The settings on record: 10 ng/mL human recombinant IL-23, SEAP readout, read-out: IL23 (TYK2 inhibitory activity, IC50). In kind it is cell-based. Put shortly: as §2
In assay [4] the target is T2, TYK2 kinase domain (JH1) (Homo sapiens, UniProt P29597).
T2 construct: recombinant purified His or GST-tagged catalytic domain for each enzyme; made in house
T2 sequence (P29597 897-1176 limits assumed): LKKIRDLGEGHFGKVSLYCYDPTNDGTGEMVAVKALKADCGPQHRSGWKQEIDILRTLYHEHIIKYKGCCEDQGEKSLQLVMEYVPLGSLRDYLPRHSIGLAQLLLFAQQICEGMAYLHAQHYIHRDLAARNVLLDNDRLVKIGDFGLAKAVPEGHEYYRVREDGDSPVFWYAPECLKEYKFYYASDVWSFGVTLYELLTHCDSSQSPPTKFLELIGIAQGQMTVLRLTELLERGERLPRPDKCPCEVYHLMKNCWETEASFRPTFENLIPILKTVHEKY
Kind of assay: HTRF-based selectivity assay, TYK2 catalytic domain. In kind it is biochemical. The settings on record: 20 μM ATP.

Assay [5] addresses T3, JAK2 kinase domain (JH1) (Homo sapiens, UniProt O60674).
T3 construct: recombinant purified His or GST-tagged catalytic domain for each enzyme; made in house
Kind of assay: HTRF-based selectivity assay, JAK2 catalytic domain. In kind it is biochemical. The following applies: 14.7 μM ATP. Put shortly: as §1

In assay [6] the test system is IFNγ-stimulated HEK-Blue IFNγ reporter cells. Put plainly: HEK-Blue IFNγ reporter assay (STAT1-inducible SEAP) for determining selectivity. The settings on record: 50 ng/mL human recombinant IFNγ, 24 hours, read-out: IFN-γ SEAP selectivity assay IC50. In kind it is cell-based. An outline of the steps:
(§3)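 Cells were plated for 20-22 h, then pretreated with serially diluted compound for 60 min. They were stimulated for 24 h with 4 ng/mL human recombinant IL-2 or 50 ng/mL human recombinant IFNγ, and SEAP induction was read with QUANTI-Blue.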

The target in assay [7] is T4, JAK3 kinase domain (JH1) (Homo sapiens, UniProt P52333).
T4 construct: recombinant purified His or GST-tagged catalytic domain for each enzyme; purchased Carna biosciences 08-046
Put plainly: HTRF-based selectivity assay, JAK3 catalytic domain. The following applies: 2.12 μM ATP. In kind it is biochemical. Put shortly: as §1

The test system of assay [8] is IL-2-stimulated HEK-Blue IL-2 reporter cells. Put plainly: HEK-Blue IL-2 reporter assay (STAT5-inducible SEAP) for determining selectivity. In kind it is cell-based. The following applies: 4 ng/mL human recombinant IL-2, 24 hours. Put shortly: as §3

SMILES strings stand for the structures. Where only a bound is given, the exact number is not on record here.

T3 sequence (O60674 849-1124 limits assumed): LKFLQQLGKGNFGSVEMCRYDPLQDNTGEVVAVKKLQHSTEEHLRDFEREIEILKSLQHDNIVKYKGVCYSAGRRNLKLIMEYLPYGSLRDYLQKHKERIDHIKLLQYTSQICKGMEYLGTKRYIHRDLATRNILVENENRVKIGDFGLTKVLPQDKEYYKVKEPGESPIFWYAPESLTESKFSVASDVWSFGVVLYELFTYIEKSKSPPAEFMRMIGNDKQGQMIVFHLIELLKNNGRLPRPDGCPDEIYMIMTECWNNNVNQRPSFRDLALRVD
T1 sequence (P23458 875-1153 limits assumed): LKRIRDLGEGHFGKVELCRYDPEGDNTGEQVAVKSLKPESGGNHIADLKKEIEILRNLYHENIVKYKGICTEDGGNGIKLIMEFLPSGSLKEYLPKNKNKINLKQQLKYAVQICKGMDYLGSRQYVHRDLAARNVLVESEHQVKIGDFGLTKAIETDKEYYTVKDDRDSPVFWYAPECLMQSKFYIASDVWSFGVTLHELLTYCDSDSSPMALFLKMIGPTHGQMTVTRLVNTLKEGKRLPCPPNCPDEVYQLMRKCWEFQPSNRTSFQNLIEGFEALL
T4 sequence (P52333 822-1111 limits assumed): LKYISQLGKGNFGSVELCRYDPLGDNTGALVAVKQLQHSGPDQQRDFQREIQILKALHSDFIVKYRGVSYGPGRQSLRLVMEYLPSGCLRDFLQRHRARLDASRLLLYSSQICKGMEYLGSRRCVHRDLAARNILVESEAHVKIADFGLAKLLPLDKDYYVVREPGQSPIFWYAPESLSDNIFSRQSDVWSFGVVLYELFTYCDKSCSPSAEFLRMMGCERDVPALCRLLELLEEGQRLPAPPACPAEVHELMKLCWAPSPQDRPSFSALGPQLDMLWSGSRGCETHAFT

Turning to `[2H]C([2H])([2H])NC(=O)c1nnc(Nc2ccc(F)cn2)cc1Nc1cccc2c1OCc1cn(C)nc1-2` [Compound 5, 6-((5-fluoropyridin-2-yl)amino)-N-(methyl-d3)-4-((2-methyl-2,4-dihydrochromeno[4,3-c]pyrazol-6-yl)amino)pyridazine-3-carboxamide], the IC50 was over 1000 nM in assay [1]; 30 to 300 nM in assay [2]; under 30 nM in assay [3]; over 1000 nM in assay [4]; over 1000 nM in assay [5]; over 1000 nM in assay [6]. For the same compound, the IC50 in assay [7] and in assay [8] was over 1000 nM throughout.
Regarding `[2H]C([2H])([2H])NC(=O)c1cnc(NC(=O)C2CC2)cc1Nc1cccc2c1N(C([2H])([2H])[2H])Cc1cn(C)nc1-2` [Compound 26, 6-(cyclopropanecarboxamido)-N-(methyl-d3)-4-((2-methyl-5-(methyl-d3)-4,5-dihydro-2H-pyrazolo[4,3-c]quinolin-6-yl)amino)nicotinamide], the IC50 in assay [1] is over 1000 nM; in assay [2], under 30 nM; in assay [3], under 30 nM; in assay [4], over 1000 nM; in assay [5], over 1000 nM; in assay [6], 30 to 300 nM. In addition, the half-maximal inhibitory concentration (IC50) in assay [7] and in assay [8] was over 1000 nM in each case.
Consider `[2H]C([2H])([2H])NC(=O)c1nnc(NC(=O)C2CC2)cc1Nc1cccc2c1N(C)Cc1cn(C)nc1-2` [Compound 15, 6-(cyclopropanecarboxamido)-4-((2,5-dimethyl-4,5-dihydro-2H-pyrazolo[4,3-c]quinolin-6-yl)amino)-N-(methyl-d3)pyridazine-3-carboxamide], for which the IC50 in assay [1] was over 1000 nM; in assay [2], under 30 nM; in assay [3], under 30 nM; in assay [4], over 1000 nM; in assay [5] it was over 1000 nM; in assay [6] it was over 1000 nM. Besides, the IC50 in assay [7] and in assay [8] was over 1000 nM in each case.
As for `[2H]C([2H])([2H])NC(=O)c1cnc(NC(=O)C2CC2)cc1Nc1cccc2c1N(C)Cc1c[nH]nc1-2` [Compound 23, 6-(cyclopropanecarboxamido)-N-(methyl-d3)-4-((5-methyl-4,5-dihydro-2H-pyrazolo[4,3-c]quinolin-6-yl)amino)nicotinamide], the IC50 in assay [1] was over 1000 nM; in assay [2], under 30 nM; in assay [3], under 30 nM; in assay [4], over 1000 nM; in assay [5], over 1000 nM; in assay [6], over 1000 nM. Further, the IC50 in assay [7] and in assay [8] was over 1000 nM throughout.
On to `[2H]C([2H])([2H])NC(=O)c1cnc(Nc2ccc(F)cn2)cc1Nc1cccc2c1N(C)Cc1cn(C)nc1-2` [Compound 13, 4-((2,5-dimethyl-4,5-dihydro-2H-pyrazolo[4,3-c]quinolin-6-yl)amino)-6-((5-fluoropyridin-2-yl)amino)-N-(methyl-d3)nicotinamide], for which the half-inhibitory concentration (IC50) in assay [1] is over 1000 nM; in assay [2] it was under 30 nM; in assay [3], under 30 nM; in assay [4] it was over 1000 nM; in assay [5], over 1000 nM; in assay [6], 300 to 1000 nM. Moreover, the IC50 in assay [7] and in assay [8] was over 1000 nM in each case.

In general, IC50 refers to the concentration needed to halve the response being measured.
